Assay results from ChEMBL document CHEMBL1159272, “Antimicrobial metabolites from a bacterial symbiont” (1995).
≈ marks a conversion by molar mass, not a printed value.

How the values were obtained:
Assay type in all cases: functional
Aspergillus fumigatus = experiment: Antifungal activity against Aspergillus fumigatus ATCC 13073 after 24 hrs by serial dilution method; conditions: ATCC 13073, 24 h
Aspergillus flavus = experiment: Antifungal activity against Aspergillus flavus ATCC 24133 after 24 hrs by serial dilution method; conditions: ATCC 24133, 24 h
Botrytis cinerea = experiment: Antifungal activity against Botrytis cinerea after 48 hrs by serial dilution method
Candida tropicalis = experiment: Antifungal activity against Candida tropicalis CBS94 after 24 hrs by serial dilution method
Cryptococcus neoformans = experiment: Antifungal activity against Cryptococcus neoformans ATCC 14117 after 24 hrs by serial dilution method; conditions: ATCC 14117, 24 h
Phytophthora infestans = experiment: Antifungal activity against Phytophthora infestans after 96 hrs by serial dilution method
Globisporangium ultimum = experiment: Antifungal activity against Pythium ultimum after 24 hrs by serial dilution method

Compound | MIC (Aspergillus fumigatus) [µg/mL] | MIC (Aspergillus flavus) [µg/mL] | MIC (Botrytis cinerea) [µg/mL] | MIC (Candida tropicalis) [µg/mL] | MIC (Cryptococcus neoformans) [µg/mL] | MIC (Phytophthora infestans) [µg/mL] | MIC (Globisporangium ultimum) [µg/mL]
CC(C)C(=O)C(O)Cc1c[nH]c2ccccc12 (stereo unspecified) | > 100 | > 100 | 12 (≈ 51.9 µM) | > 100 | > 100 | 50 (≈ 216 µM) | > 100
CCC(C)C(=O)C(O)Cc1c[nH]c2ccccc12 (stereo unspecified) | > 100 | > 100 | 12 (≈ 48.9 µM) | > 100 | > 100 | 100 (≈ 408 µM) | > 100
CC(=O)OC(Cc1c[nH]c2ccccc12)C(=O)C(C)C (stereo unspecified) | > 100 | > 100 | > 100 | > 100 | 25 (≈ 91.5 µM) | – | –
CCC(C)C(=O)C(Cc1c[nH]c2ccccc12)OC(C)=O (stereo unspecified) | > 100 | > 100 | > 100 | > 100 | 50 (≈ 174 µM) | 100 (≈ 348 µM) | > 100
